Results from the NIST ThermoML archive (doi:10.1016/j.jct.2019.03.023).
“And” between values parts separate entries of the source, which are not always exact repeats. Identical values can stand only once. Numbers after ± are expanded uncertainties.

Test: molar heat capacity at constant volume
Settings: Fluid (supercritical or subcritical phases), Vacuum adiabatic calorimetry

CC(C)O [propan-2-ol]
Settings | molar heat capacity at constant volume
506.89 K, Mass density=324.5 kg/m3 | 348.43 ± 10 J/K/mol and 347.05 ± 10 J/K/mol
506.89 K, Mass density=343.1 kg/m3 | 330.28 ± 9.9 J/K/mol
506.97 K, Mass density=329.2 kg/m3 | 330.22 ± 9.9 J/K/mol
506.98 K, Mass density=288.99 kg/m3 | 360.33 ± 11 J/K/mol
506.98 K, Mass density=324.5 kg/m3 | 352.64 ± 11 J/K/mol
506.98 K, Mass density=343.1 kg/m3 | 333.83 ± 10 J/K/mol
507.07 K, Mass density=288.99 kg/m3 | 365.74 ± 11 J/K/mol
507.07 K, Mass density=324.5 kg/m3 | 346.75 ± 10 J/K/mol
507.08 K, Mass density=343.1 kg/m3 | 331.96 ± 10 J/K/mol
507.11 K, Mass density=329.2 kg/m3 | 342.54 ± 10 J/K/mol
507.17 K, Mass density=288.99 kg/m3 | 355.1 ± 11 J/K/mol
507.17 K, Mass density=293.3 kg/m3 | 358.29 ± 11 J/K/mol
507.17 K, Mass density=324.5 kg/m3 | 351.56 ± 11 J/K/mol
507.17 K, Mass density=343.1 kg/m3 | 333.89 ± 10 J/K/mol
507.2 K, Mass density=329.2 kg/m3 | 339.6 ± 10 J/K/mol
507.26 K, Mass density=288.99 kg/m3 | 361.53 ± 11 J/K/mol
507.26 K, Mass density=324.5 kg/m3 | 348.79 ± 10 J/K/mol
507.26 K, Mass density=343.1 kg/m3 | 336.65 ± 10 J/K/mol
507.3 K, Mass density=329.2 kg/m3 | 339.42 ± 10 J/K/mol
507.35 K, Mass density=293.3 kg/m3 | 367 ± 11 J/K/mol
507.35 K, Mass density=324.5 kg/m3 | 351.56 ± 11 J/K/mol
507.36 K, Mass density=343.1 kg/m3 | 338.58 ± 10 J/K/mol
507.4 K, Mass density=329.2 kg/m3 | 335.93 ± 10 J/K/mol
507.45 K, Mass density=293.3 kg/m3 | 363.82 ± 11 J/K/mol
507.45 K, Mass density=324.5 kg/m3 | 357.02 ± 11 J/K/mol
507.45 K, Mass density=343.1 kg/m3 | 335.69 ± 10 J/K/mol
507.5 K, Mass density=329.2 kg/m3 | 343.02 ± 10 J/K/mol
507.54 K, Mass density=293.3 kg/m3 | 371.39 ± 11 J/K/mol
507.54 K, Mass density=324.5 kg/m3 | 349.09 ± 10 J/K/mol
507.54 K, Mass density=343.1 kg/m3 | 337.79 ± 10 J/K/mol
507.59 K, Mass density=329.2 kg/m3 | 338.94 ± 10 J/K/mol
507.63 K, Mass density=293.3 kg/m3 | 367.06 ± 11 J/K/mol
507.63 K, Mass density=324.5 kg/m3 | 353.72 ± 11 J/K/mol
507.65 K, Mass density=343.1 kg/m3 | 339.78 ± 10 J/K/mol
507.69 K, Mass density=329.2 kg/m3 | 354.86 ± 11 J/K/mol
507.7 K, Mass density=329.2 kg/m3 | 347.95 ± 10 J/K/mol
507.73 K, Mass density=293.3 kg/m3 | 369.4 ± 11 J/K/mol
507.73 K, Mass density=324.5 kg/m3 | 360.99 ± 11 J/K/mol
507.82 K, Mass density=274 kg/m3 | 385.09 ± 12 J/K/mol
507.82 K, Mass density=293.3 kg/m3 | 371.39 ± 11 J/K/mol
507.82 K, Mass density=324.5 kg/m3 | 358.53 ± 11 J/K/mol
507.82 K, Mass density=343.1 kg/m3 | 338.76 ± 10 J/K/mol
507.89 K, Mass density=329.2 kg/m3 | 352.76 ± 11 J/K/mol
507.91 K, Mass density=274 kg/m3 | 385.33 ± 12 J/K/mol
507.91 K, Mass density=293.3 kg/m3 | 375.83 ± 11 J/K/mol
507.91 K, Mass density=324.5 kg/m3 | 365.2 ± 11 J/K/mol
